The source of these data is patent US20250368623A1, “PYRIDAZINONE-DERIVED COMPOUNDS FOR THE MODULATION OF MYC AND FOR MEDICAL USES” (GENETIC INTELLIGENCE, INC, priority 2022, published 2025).

SMILES strings stand for the structures.

Holding throughout (format): cell-based
Experiment [1] relates to MYC protein. Kind of experiment: Western blot of MYC protein in human cancer cell lines. To be noted: about 1 μM, 2-day incubation, e.g., A549 or HepG2, GAPDH loading control, vs DMSO. The method, then: The level of reduction of MYC protein following treatment with test compounds is also assessed by Western blot according to the following protocol. The human cancer cell lines (e.g., A549 or HepG2) are seeded at 20,000 cells per well in a 96-well plate. After 1 day, the cells are treated with test compounds at a final concentration of about 1 μM. After a 2-day incubation period, the supernatant is removed from the wells and RIPA buffer is added to create cell lysates. The lysates are analyzed by Western blot and probed with a MYC-specific antibody (e.g., Proteintech 10828-1-AP) together with a GAPDH-specific antibody (e.g., Proteintech 10494-1-AP) to serve as loading control. The intensities of Western blot bands are quantified by FIJI (Image J). The relative expression value of MYC following treatment with a test compound is calculated by dividing the intensity of the MYC band of the sample with the intensity of its own GAPDH band. The value so obtained is presented as a percentage of that of the no-compound, solvent only (DMSO)-treated sample. A lower percentage of MYC protein in a sample with respect to the DMSO-treated sample indicates greater percentage reduction in MYC protein level due to the test compound, and vice versa.

In experiment [2] the test system is HepG2. Kind of experiment: CCK-8 cell viability assay, HepG2. To be noted: Homo sapiens; CCK-8, HepG2, 2-day or 3-day incubation, cytotoxic effect. Background: Tetrazolium assays rely on reduction of a dye to a coloured formazan, in cell work by metabolically active cells.
Description: The effect of test compounds on cell viability is determined using the CCK-8 assay kit (Dojindo CK04-1000) according to the following protocol. The human cancer cell lines (e.g., A549, HepG2, JeKo-1, MDA-MB-231, etc.) and non-cancer human cell lines (e.g., HEK-293, HaCaT, etc.), are seeded at 20,000 cells per well in a 96-well plate. After 1 day, the cells are treated with test compounds at various final concentrations (e.g., 10 nM, 31.6 nM, 100 nM, 316 nM, 1 μM, 3.16 μM, 10 μM, 20 μM, etc.). After a 2-day or 3-day incubation period, 10 μL of CCK-8 solution, which contains the WST-8 dye, is added to each well according to the kit manufacturer's protocol. After incubation for 1-4 hours, the absorbance at 450 nm is measured using a microplate reader. The absorbance at 450 nm measures the amount of WST-8 that is reduced to WST-8 formazan by cellular dehydrogenases, which is directly proportional to the number of living cells. The cytotoxic effect of test compounds at different concentrations is calculated by subtracting from 1 the ratio of absorbance of the compound-treated sample at 450 nm to that of the no-compound, solvent only (DMSO)-treated sample. […] The IC50 values for the cytotoxic effect of each test compound in A549, HepG2, JeKo-1, and/or MDA-MB-231 cells are determined by plotting a dose-response curve to calculate the concentration of test compound that produces half of the maximum cytotoxic effect.
Experiment [3] has as its system MYC protein. The experiment can be described thus: MYC HTRF assay, MYC protein level in human cell lines. The note with it: about 20 μM, 2-day incubation, human cell lines (e.g., A549, HepG2), vs DMSO-treated sample. As for the experimental part:
The MYC homogenous time-resolved fluorescence (HTRF) assay kit (CisBio/Perkin Elmer 63ADK053PEG) is used to quantify the level of MYC protein in human cell lines (e.g., A549, HepG2) following treatment with test compounds, according to the following protocol. Human cells cultured in DMEM-10% FBS media are seeded at 20,000 cells per well in a 96-well plate. After 1 day, the cells are treated with test compounds at a final concentration of about 20 μM. After a 2-day incubation period, the supernatant is removed from the wells and the HTRF assay is carried out according to the kit manufacturer's protocol. In brief, lysis buffer #4 is added to create cell lysates. 10 μL of cell lysate is added to 10 μL of premixed antibody solution (anti-human My c-Eu cryptate antibody and anti-human Myc-d2 antibody) prepared in detection buffer #3 in a 384-well low-volume white-walled plated. After 3 h of incubation, fluorescence readings are taken at the emission wavelengths of donor and acceptor fluorophores (620 nm and 665 nm respectively) using a HTRF-compatible plate reader. The ratio of acceptor and donor fluorescence emission signals for each sample is calculated by dividing the fluorescence signal at 665 nm by the signal at 620 nm, and further normalized by dividing with the concentration of total protein in that sample as determined by the BCA assay. The values so obtained are presented as a percentage of that of the no-compound, solvent only (DMSO)-treated samples. A lower percentage of MYC protein in a sample with respect to the DMSO-treated sample indicates greater percentage reduction in MYC protein level due to the test compound, and vice versa.

The test system of experiment [4] is MYC RNA. The experiment can be described thus: RT-qPCR of MYC RNA in human cancer cell lines. To be noted: 24 h, about 1 μM, 1-day incubation, e.g., A549, HepG2, beta-actin normalized, vs DMSO, read-out: % reduction of MYC RNA. The method, then:
The level of reduction of MYC RNA following treatment with test compounds is assessed using RT-qPCR according to the following protocol. The human cancer cell lines (e.g., A549, HepG2) are seeded at 20,000 cells per well in a 96-well plate. After 1 day, the cells are treated with test compounds at a final concentration of about 1 μM. After a 1-day incubation period, the supernatant is removed from the wells and lysis solution from the Cells-to-CT 1-Step Power SYBR Green Kit (Invitrogen A25599) is added to create cell lysates, according to the kit manufacturer's protocol. The kit manufacturer's protocol is then followed to perform RT-qPCR for each sample using a pair of MYC-specific primers (e.g., SEQ ID NO: 4 and SEQ ID NO: 5) to detect MYC RNA, as well as a pair of beta-actin-specific primers (e.g., SEQ ID NO: 6 and SEQ ID NO: 7) to detect beta-actin RNA, which serves as a loading control. The relative expression levels of MYC and beta-actin RNAs are calculated using a standard curve generated from a dilution series of untreated cell lysates. The normalized level of MYC RNA following treatment with a test compound is calculated by dividing the relative expression level of MYC in the sample by the relative expression level of beta actin in the same sample. The value so obtained is presented as a percentage of that of the no-compound, solvent only (DMSO)-treated sample. A lower percentage of MYC RNA in a sample with respect to the DMSO-treated sample indicates greater percentage reduction in MYC RNA levels due to the test compound, and vice versa.
(In general: In qPCR the cycle at which signal appears reflects the starting amount.)

The test system of experiment [5] is MDA-MB-231. Kind of experiment: CCK-8 cell viability assay, MDA-MB-231. To be noted: Homo sapiens; CCK-8, MDA-MB-231, 2-day or 3-day incubation, cytotoxic effect. The method, then:
(§1) The effect of test compounds on cell viability is determined using the CCK-8 assay kit (Dojindo CK04-1000) according to the following protocol. The human cancer cell lines (e.g., A549, HepG2, JeKo-1, MDA-MB-231, etc.) and non-cancer human cell lines (e.g., HEK-293, HaCaT, etc.), are seeded at 20,000 cells per well in a 96-well plate. After 1 day, the cells are treated with test compounds at various final concentrations (e.g., 10 nM, 31.6 nM, 100 nM, 316 nM, 1 μM, 3.16 μM, 10 μM, 20 μM, etc.). After a 2-day or 3-day incubation period, 10 μL of CCK-8 solution, which contains the WST-8 dye, is added to each well according to the kit manufacturer's protocol. After incubation for 1-4 hours, the absorbance at 450 nm is measured using a microplate reader. The absorbance at 450 nm measures the amount of WST-8 that is reduced to WST-8 formazan by cellular dehydrogenases, which is directly proportional to the number of living cells. The cytotoxic effect of test compounds at different concentrations is calculated by subtracting from 1 the ratio of absorbance of the compound-treated sample at 450 nm to that of the no-compound, solvent only (DMSO)-treated sample. A higher number indicates a greater cytotoxic effect of the test compound on cells (corresponding to a greater reduction in cellular dehydrogenase activity), and vice versa. The IC50 values for the cytotoxic effect of each test compound in A549, HepG2, JeKo-1, and/or MDA-MB-231 cells are determined by plotting a dose-response curve to calculate the concentration of test compound that produces half of the maximum cytotoxic effect. The cytotoxic effect and IC50 of test compounds are also measured in a non-cancer human cell line (e.g., HEK-293, and/or HaCaT) as a proxy for healthy cells to determine the therapeutic window of the test compounds (i.e., the concentration range at which the test compounds selectively kill cancer cells but not healthy cells). The therapeutic index of a test compound is defined herein as its IC50 in HEK-293 cells divided by its IC50 in HepG2 cells.

Experiment [6] has as its system JeKo-1. The experiment can be described thus: CCK-8 cell viability assay, JeKo-1. The note with it: Homo sapiens; CCK-8, JeKo-1, 2-day or 3-day incubation, cytotoxic effect. The method, then: as §1
Experiment [7] has as its system HEK-293. The experiment can be described thus: CellTiter-Glo 2.0 cell viability assay, HEK-293. The note with it: Homo sapiens, HEK293, 48 h; CellTiter-Glo 2.0, HEK-293, 2-day incubation.
Description: (§2) The effect of test compounds on cell viability is also determined using the CellTiter-Glo 2.0 assay kit (Promega G9241) according to the following protocol. The human cancer cell line (e.g., HepG2) and a non-cancer human cell line (e.g., HEK-293), are seeded at 20,000 cells per well in a 96-well plate. After 1 day, the cells are treated with test compounds at various concentrations (e.g., 10 nM, 31.6 nM, 100 nM, 316 nM, 1 μM, 3.16 μM, 10 μM, 20 μM, etc.). After a 2-day incubation period, the CellTiter-Glo 2.0 assay is performed according to the kit manufacturer's protocol. […] The contents are mixed for 2 minutes on an orbital shaker to induce cell lysis, and incubated for 10 minutes at room temperature, following which the luminescent signal is measured using a microplate reader. […] The cytotoxic effect of test compounds at different concentrations is calculated by subtracting from 1 the ratio of the luminescence signal of the compound-treated sample to that of the no-compound, solvent only (DMSO)-treated sample. […] The IC50 values for the cytotoxic effect of each test compound in HepG2 cells are determined by plotting a dose-response curve to calculate the concentration of test compound that produces half of the maximum cytotoxic effect. […]
The test system of experiment [8] is HepG2. The experiment can be described thus: CellTiter-Glo 2.0 cell viability assay, HepG2. The note with it: Homo sapiens, 48 h; CellTiter-Glo 2.0, HepG2, 2-day incubation. In general terms: In ATP-based viability assays light output follows the ATP content of the culture.
Description: as §2
In experiment [9] the test system is HEK-293. The experiment can be described thus: ApoTox-Glo Triplex assay (live-dead ratio), HEK-293. The note with it: Homo sapiens, HEK293, 48 h, HEK-293, 2-day incubation.
Description: The effects of test compounds on cell viability and apoptosis are determined using the ApoTox-Glo Triplex assay kit (Promega G6320) according to the following protocol. The human cancer cell line (e.g., HepG2) and a non-cancer human cell line (e.g., HEK-293), are seeded at 20,000 cells per well in a 96-well plate. After 1 day, the cells are treated with test compounds at various final concentrations (e.g., 10 nM, 31.6 nM, 100 nM, 316 nM, 1 μM, 3.16 μM, 10 μM, 20 μM, etc.). After a 2-day incubation period, the ApoTox-Glo Triplex assay is performed according to the kit manufacturer's protocol. […] After incubation for 30 minutes at 37° C., the fluorescence signal is measured at two wavelength sets (400Ex/505Em) and (485Ex/520Em) to assess live-cell protease activity and dead-cell protease activity respectively. […] After incubation for 30 minutes at room temperature, the luminescent signal is measured using a microplate reader. […]
The cytotoxic effect of test compounds according to the ApoTox-Glo Triplex assay is calculated as follows. The live-dead ratio is calculated by dividing the fluorescence signal for live-cell protease activity with the fluorescence signal for dead-cell protease activity. […]

Regarding `Cc1nc(N2CC(n3nc(-c4ccncc4)ccc3=O)C2)c2cnn(C)c2n1` [2-(1-(1,6-dimethyl-1H-pyrazolo[3,4-d]pyrimidin-4-yl)azetidin-3-yl)-6-(pyridin-4-yl)pyridazin-3(2H)-one], the “% reduction of MYC protein” value in experiment [1] was found to be 19%.

Turning to `Cc1cncc(N2CCC(Cn3nc(-n4cncn4)ccc3=O)CC2)n1` [2-((1-(6-methylpyrazin-2-yl)piperidin-4-yl)methyl)-6-(1H-1,2,4-triazol-1-yl)pyridazin-3(2H)-one], in experiment [2], the half-maximal inhibitory concentration (IC50) (commonly the concentration that inhibits the measured activity by half) was found to be 11.2 µM.

Consider `O=c1ccc(-n2cccn2)nn1CC1CCN(c2ncnc3cc(F)ccc23)CC1` [2-((1-(7-fluoroquinazolin-4-yl)piperidin-4-yl)methyl)-6-(1H-pyrazol-1-yl)pyridazin-3(2H)-one], for which the “% reduction of MYC protein” value in experiment [3] came to 74%. Moreover, in experiment [4], the inhibition at 1 µM came to 12%.

Consider `O=c1ccc(-c2ccncc2)nn1CC1CN(c2ncnc3[nH]cnc23)C1` [2-((1-(9H-purin-6-yl)azetidin-3-yl)methyl)-6-(pyridin-4-yl)pyridazin-3(2H)-one], for which the IC50 in experiment [2] worked out at 6 µM.

On to `Cc1nc(C)c(-c2ccc(=O)n(CC3CCN(c4ncnc5[nH]cnc45)CC3)n2)s1` [2-((1-(9H-purin-6-yl)piperidin-4-yl)methyl)-6-(2,4-dimethylthiazol-5-yl)pyridazin-3(2H)-one], for which, in experiment [3], the “% reduction of MYC protein” value came out at 17%. The inhibition at 1 µM in experiment [4] amounted to 1%.

For `O=c1ccc(-n2cncn2)nn1CC1CCN(c2ccc3nnc(C(F)(F)F)n3n2)CC1` [6-(1H-1,2,4-triazol-1-yl)-2-((1-(3-(trifluoromethyl)-[1,2,4]triazolo[4,3-b]pyridazin-6-yl)piperidin-4-yl)methyl)pyridazin-3(2H)-one], the IC50 in [2] was found to be 5.7 µM. The inhibition at 1 µM in [4] came out at 20%. The “% reduction of MYC protein” value in experiment [1] amounted to 29%.

Regarding `O=c1ccc(-n2cccn2)nn1CC1CCN(c2ccc3nnc(C(F)(F)F)n3n2)CC1` [6-(1H-pyrazol-1-yl)-2-((1-(3-(trifluoromethyl)-[1,2,4]triazolo[4,3-b]pyridazin-6-yl)piperidin-4-yl)methyl)pyridazin-3(2H)-one], the IC50 in experiment [2] is 18.5 µM. In addition, in [4], the inhibition at 1 µM turned out to be 19%. For the same compound, the “% reduction of MYC protein” value in experiment [1] was 33%.

Turning to `Cc1nc(C)c(-c2ccc(=O)n(CC3CCN(c4ncnc5ncccc45)CC3F)n2)s1` (stereo not drawn) [6-(2,4-dimethyl-1,3-thiazol-5-yl)-2-(3-fluoro-1-pyrido[2,3-d]pyrimidin-4-ylpiperidin-4-yl)methylpyridazin-3-one], the IC50 in experiment [5] is 1.1 µM; in experiment [6], 0.3 µM; in experiment [2], 0.5 µM.

As to `Cc1nc(N2CCC(Cn3nc(-c4sc(C)nc4C)ccc3=O)CC2)c2ccncc2n1` [6-(2,4-dimethylthiazol-5-yl)-2-((1-(2-methylpyrido[3,4-d]pyrimidin-4-yl)piperidin-4-yl)methyl)pyridazin-3(2H)-one], the “% reduction of MYC protein” value in experiment [3] is reported as 16%. In addition, in experiment [4], the inhibition at 1 µM turned out to be 5%.

Turning to `Cc1cc(N2CCC(Cn3nc(-c4sc(C)nc4C)ccc3=O)CC2)ncn1` [6-(2,4-dimethylthiazol-5-yl)-2-((1-(6-methylpyrimidin-4-yl)piperidin-4-yl)methyl)pyridazin-3(2H)-one], in experiment [3], the “% reduction of MYC protein” value was 19%. Moreover, the inhibition at 1 µM in experiment [4] was found to be 19%.

In turn, `Cc1cc(C)n(-c2ccc(=O)n(C3CCN(c4nc5cccnc5n4C)CC3)n2)n1` [6-(3,5-dimethyl-1H-pyrazol-1-yl)-2-(1-(3-methyl-3H-imidazo[4,5-b]pyridin-2-yl)piperidin-4-yl)pyridazin-3(2H)-one] showed an IC50 in [2] of 5.3 µM. In addition, the “% reduction of MYC protein” value in experiment [1] was determined as 24%.

Regarding `Cc1cc(C)n(-c2ccc(=O)n(CC3CN(c4ccc5nnc(C)n5n4)C3)n2)n1` [6-(3,5-dimethyl-1H-pyrazol-1-yl)-2-((1-(3-methyl-[1,2,4]triazolo[4,3-b]pyridazin-6-yl)azetidin-3-yl)methyl)pyridazin-3(2H)-one], the inhibition at 1 µM in experiment [4] is 4%. In addition, the “% reduction of MYC protein” value in [1] was found to be 48%.

Take `CC(=O)O[C@H]1C(=O)[C@@]2(C)[C@H]([C@H](OC(=O)c3ccccc3)[C@]3(O)C[C@H](OC(=O)[C@H](O)[C@@H](NC(=O)c4ccccc4)c4ccccc4)C(C)=C1C3(C)C)[C@]1(OC(C)=O)CO[C@@H]1C[C@@H]2O` [paclitaxel, reference compound]: the IC50 in experiment [7] worked out at 27 µM; in experiment [8], 7.5 µM; in [9], 6.9 µM.
